Literature values as cited in patent EP3744320A1, “PHAR[…] C[…]” (Alfred E. Tiefenbacher (GmbH & Co. KG), priority 2019, dated 2020).

CN1CCc2nc(C(=O)N[C@@H]3C[C@@H](C(=O)N(C)C)CC[C@@H]3NC(=O)C(=O)Nc3ccc(Cl)cn3)sc2C1 [edoxaban, N'-(5-chloropyridin-2-yl)-N-[(1S,2R,4S)-4-(dimethylcarbamoyl)-2-[(5-methyl-6,7-dihydro-4H-[1,3]thiazolo[5,4-c]pyridine-2-carbonyl)amino]cyclohexyl]oxamide]
time of peak plasma concentrations (administered in vivo): 1 to 2 h
absolute bioavailability (in vivo): approximately 62%
absorbed in the upper gastrointestinal tract (in vivo): approximately 85%
